Target: Cyclin-dependent kinase 2 (CDK2) (Homo sapiens, UniProt P24941)

SMILES: Nc1ncnc2c1ncn2[C@@H]1O[C@H](COP(=O)(O)OP(=O)(O)OP(=O)(O)O)[C@@H](O)[C@H]1O [ATP]
- Km: ~100 µM
